Results from the NIST ThermoML archive (doi:10.1007/s10765-014-1730-1).
± gives the expanded uncertainty stated by the source.

Conditions: Vibrating tube method; for mass density: Liquid; for specific volume: Gas

With F/C=C\C(F)(F)F [(Z)-1,3,3,3-tetrafluoro-1-propene] the mass density (353.14 K, 33995 kPa) was 1208 ± 1.7 kg/m3, the specific volume (353.15 K, 96.4 kPa) was 0.26 ± 0.005 m3/kg and the specific volume (353.15 K, 134.4 kPa) was 0.185 ± 0.003 m3/kg. For the same compound, the specific volume (353.15 K, 220.3 kPa) was 0.112 ± 0.001 m3/kg, the specific volume (353.15 K, 228.3 kPa) was 0.107 ± 0.001 m3/kg and the specific volume (353.15 K, 253.3 kPa) was 0.096 ± 0.001 m3/kg. The specific volume (353.15 K, 407.8 kPa) was 0.057 ± 0.001 m3/kg, the mass density (353.15 K, 3719 kPa) was 1080.1 ± 1.7 kg/m3 and the mass density (353.15 K, 14840 kPa) was 1141.7 ± 1.7 kg/m3. It also gave a mass density (353.15 K, 15847 kPa) of 1146.1 ± 1.7 kg/m3, a mass density (353.15 K, 16854 kPa) of 1150.3 ± 1.7 kg/m3 and a mass density (353.15 K, 18882 kPa) of 1158.4 ± 1.7 kg/m3. For the same compound, the mass density (353.15 K, 19886 kPa) was 1162.3 ± 1.7 kg/m3, the mass density (353.15 K, 20899 kPa) was 1166.1 ± 1.7 kg/m3 and the mass density (353.15 K, 22916 kPa) was 1173.4 ± 1.7 kg/m3. For the same compound, the mass density (353.15 K, 24928 kPa) was 1180.3 ± 1.7 kg/m3, the mass density (353.15 K, 25940 kPa) was 1183.7 ± 1.7 kg/m3 and the mass density (353.15 K, 26948 kPa) was 1186.9 ± 1.7 kg/m3. For the same compound, the mass density (353.15 K, 27955 kPa) was 1190.1 ± 1.7 kg/m3, the mass density (353.15 K, 28958 kPa) was 1193.2 ± 1.7 kg/m3 and the mass density (353.15 K, 29961 kPa) was 1196.3 ± 1.7 kg/m3. For the same compound, the mass density (353.15 K, 30974 kPa) was 1199.3 ± 1.7 kg/m3, the mass density (353.15 K, 31977 kPa) was 1202.3 ± 1.7 kg/m3 and the mass density (353.15 K, 32988 kPa) was 1205.2 ± 1.7 kg/m3. The mass density (353.16 K, 926 kPa) was 1057.5 ± 1.7 kg/m3, the mass density (353.16 K, 1696 kPa) was 1064.4 ± 1.7 kg/m3 and the mass density (353.16 K, 2698 kPa) was 1072.4 ± 1.7 kg/m3. For the same compound, the mass density (353.16 K, 4742 kPa) was 1087.3 ± 1.7 kg/m3, the mass density (353.16 K, 5750 kPa) was 1093.9 ± 1.7 kg/m3 and the mass density (353.16 K, 6761 kPa) was 1100.2 ± 1.7 kg/m3. It also gave a mass density (353.16 K, 7770 kPa) of 1106.2 ± 1.7 kg/m3, a mass density (353.16 K, 8771 kPa) of 1111.9 ± 1.7 kg/m3 and a mass density (353.16 K, 9787 kPa) of 1117.4 ± 1.7 kg/m3. It also gave a mass density (353.16 K, 10798 kPa) of 1122.6 ± 1.7 kg/m3, a mass density (353.16 K, 11809 kPa) of 1127.7 ± 1.7 kg/m3 and a mass density (353.16 K, 12819 kPa) of 1132.5 ± 1.7 kg/m3. It also gave a mass density (353.16 K, 13828 kPa) of 1137.2 ± 1.7 kg/m3, a mass density (353.16 K, 17868 kPa) of 1154.4 ± 1.7 kg/m3 and a mass density (353.16 K, 21904 kPa) of 1169.8 ± 1.7 kg/m3. The mass density (353.16 K, 23917 kPa) was 1176.9 ± 1.7 kg/m3, the specific volume (355.15 K, 313.8 kPa) was 0.077 ± 0.001 m3/kg and the specific volume (358.15 K, 97.9 kPa) was 0.26 ± 0.005 m3/kg. The specific volume (358.15 K, 136.4 kPa) was 0.186 ± 0.003 m3/kg, the specific volume (358.15 K, 223.9 kPa) was 0.112 ± 0.001 m3/kg and the specific volume (358.15 K, 232 kPa) was 0.107 ± 0.001 m3/kg. It also gave a specific volume (358.15 K, 257.4 kPa) of 0.096 ± 0.001 m3/kg, a specific volume (358.15 K, 415 kPa) of 0.057 ± 0.001 m3/kg and a specific volume (360.15 K, 319.1 kPa) of 0.077 ± 0.001 m3/kg. For the same compound, the mass density (363.13 K, 14901 kPa) was 1116.7 ± 1.7 kg/m3, the mass density (363.14 K, 1456 kPa) was 1023.9 ± 1.7 kg/m3 and the mass density (363.14 K, 1771 kPa) was 1027.2 ± 1.7 kg/m3. The mass density (363.14 K, 2776 kPa) was 1037.2 ± 1.7 kg/m3, the mass density (363.14 K, 3803 kPa) was 1046.4 ± 1.7 kg/m3 and the mass density (363.14 K, 4829 kPa) was 1055 ± 1.7 kg/m3. It also gave a mass density (363.14 K, 5830 kPa) of 1062.7 ± 1.7 kg/m3, a mass density (363.14 K, 6835 kPa) of 1070 ± 1.7 kg/m3 and a mass density (363.14 K, 7849 kPa) of 1076.9 ± 1.7 kg/m3. It also gave a mass density (363.14 K, 8855 kPa) of 1083.4 ± 1.7 kg/m3, a mass density (363.14 K, 9860 kPa) of 1089.5 ± 1.7 kg/m3 and a mass density (363.14 K, 10872 kPa) of 1095.5 ± 1.7 kg/m3. The mass density (363.14 K, 11879 kPa) was 1101.1 ± 1.7 kg/m3, the mass density (363.14 K, 12892 kPa) was 1106.5 ± 1.7 kg/m3 and the mass density (363.14 K, 13892 kPa) was 1111.7 ± 1.7 kg/m3. It also gave a mass density (363.14 K, 15912 kPa) of 1121.5 ± 1.7 kg/m3, a mass density (363.14 K, 16917 kPa) of 1126.2 ± 1.7 kg/m3 and a mass density (363.14 K, 17931 kPa) of 1130.7 ± 1.7 kg/m3. The mass density (363.14 K, 18936 kPa) was 1135 ± 1.7 kg/m3, the mass density (363.14 K, 19943 kPa) was 1139.3 ± 1.7 kg/m3 and the mass density (363.14 K, 20949 kPa) was 1143.4 ± 1.7 kg/m3. It also gave a mass density (363.14 K, 21954 kPa) of 1147.4 ± 1.7 kg/m3, a mass density (363.14 K, 22956 kPa) of 1151.2 ± 1.7 kg/m3 and a mass density (363.14 K, 23961 kPa) of 1155 ± 1.7 kg/m3. It also gave a mass density (363.14 K, 25973 kPa) of 1162.3 ± 1.7 kg/m3, a mass density (363.14 K, 26975 kPa) of 1165.8 ± 1.7 kg/m3 and a mass density (363.14 K, 27982 kPa) of 1169.3 ± 1.7 kg/m3. For the same compound, the mass density (363.14 K, 29991 kPa) was 1175.9 ± 1.7 kg/m3, the mass density (363.14 K, 31998 kPa) was 1182.3 ± 1.7 kg/m3 and the specific volume (363.15 K, 99.3 kPa) was 0.26 ± 0.005 m3/kg. It also gave a specific volume (363.15 K, 138.4 kPa) of 0.186 ± 0.003 m3/kg, a specific volume (363.15 K, 227.4 kPa) of 0.112 ± 0.001 m3/kg and a specific volume (363.15 K, 235.7 kPa) of 0.107 ± 0.001 m3/kg. The specific volume (363.15 K, 261.4 kPa) was 0.096 ± 0.001 m3/kg, the specific volume (363.15 K, 422.2 kPa) was 0.057 ± 0.001 m3/kg and the mass density (363.15 K, 24969 kPa) was 1158.7 ± 1.7 kg/m3. The mass density (363.15 K, 28984 kPa) was 1172.6 ± 1.7 kg/m3, the mass density (363.15 K, 30992 kPa) was 1179.1 ± 1.7 kg/m3 and the mass density (363.15 K, 33009 kPa) was 1185.4 ± 1.7 kg/m3. It also gave a mass density (363.15 K, 34010 kPa) of 1188.4 ± 1.7 kg/m3, a specific volume (365.15 K, 324.3 kPa) of 0.077 ± 0.001 m3/kg and a specific volume (368.15 K, 100.7 kPa) of 0.26 ± 0.005 m3/kg. The specific volume (368.15 K, 140.5 kPa) was 0.186 ± 0.003 m3/kg, the specific volume (368.15 K, 231 kPa) was 0.112 ± 0.001 m3/kg and the specific volume (368.15 K, 239.3 kPa) was 0.107 ± 0.001 m3/kg. The specific volume (368.15 K, 265.5 kPa) was 0.096 ± 0.001 m3/kg, the specific volume (368.15 K, 429.3 kPa) was 0.057 ± 0.001 m3/kg and the specific volume (370.15 K, 329.4 kPa) was 0.077 ± 0.001 m3/kg. It also gave a specific volume (373.15 K, 102.2 kPa) of 0.26 ± 0.005 m3/kg, a specific volume (373.15 K, 142.5 kPa) of 0.186 ± 0.003 m3/kg and a specific volume (373.15 K, 234.6 kPa) of 0.112 ± 0.001 m3/kg. It also gave a specific volume (373.15 K, 242.9 kPa) of 0.107 ± 0.001 m3/kg, a specific volume (373.15 K, 269.6 kPa) of 0.096 ± 0.001 m3/kg and a specific volume (373.15 K, 436.3 kPa) of 0.057 ± 0.001 m3/kg. The specific volume (375.15 K, 334.6 kPa) was 0.077 ± 0.001 m3/kg.
